{
  "source": "patent EP2845588A1",
  "about": "“PIN1 inhibitors for use in the prevention and/or treatment of theileriosis, and related applications” (Centre National de la Recherche Scientifique (CNRS), priority 2013, dated 2015)",
  "key": {"PIN1 [1]": {"biological_target": "T1, PIN1 (Homo sapiens, UniProt Q13526)", "T1 sequence (Q13526 whole entry)": "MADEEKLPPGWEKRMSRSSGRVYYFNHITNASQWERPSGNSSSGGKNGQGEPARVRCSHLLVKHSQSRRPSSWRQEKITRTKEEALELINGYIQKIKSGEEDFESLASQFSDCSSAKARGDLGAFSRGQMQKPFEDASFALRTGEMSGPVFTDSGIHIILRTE", "details": "cited from earlier work; for IC50: read-out: PIN1 inhibition IC50"}, "[2]": {"system": "non-parasitized BL3 cells", "assay": "Cell proliferation, live cell count after trypan blue exclusion, BL3", "type": "cell-based, bovine", "details": "BL3 / uninfected cells", "method": "All infected bovine cell lines used in this study were previously described: TBL3 cells were derived from in vitro infection of the spontaneous bovine-B lymphosarcoma cell line, BL3, with Hissar stock of T.annulata. The TpMD409 lymphocyte cell line are infected with T. parva. The culture conditions of these cell lines were previously described by Moreau et al., 1999. Cells were cultured in RPMI 1640 (Gibco-BRL, Paisley, UK), supplemented with 10% heat-inactivated Fetal calf serum, 4mM L-Glutamine, 25mM HEPES, 10µM β-mercaptoethanol and 100µg/ml penicillin/streptomycin in a humidified 5%CO2 atmosphere at 37°C. HepG2, NIH/3T3 and MEF cells lines were cultured in DMEM (Gibco-BRL, Paisley, UK), supplemented with 10% heat-inactivated Fetal calf serum, 4mM L-Glutamine, 25 mM HEPES, 10µM β-mercaptoethanol and 100µg/ml penicillin/streptomycin in a humidified 5% CO2 atmosphere at 37°C. Cell numbers, as judged by Trypan Blue exclusion test, were determined by counting cells using a Countess automated cell counter (Invitrogen, CA, USA). The anti-parasite drug Buparvaquone (BW720c) was used at 200ng/ml for 72 hours. BW720c has no effect on growth of uninfected cells.\nCells were treated with either Juglone at 5 µM resuspended in Ethanol (Sigma, St Louis, MO, Ref.: H47003), or PiB at 1 µM resuspended in DMSO (Sigma, Ref.: B7688), or Dimethyloxalylglycine DMOG at 0.5 mM resuspended in DMSO (Tebu-bio, MO, USA)."}, "[3]": {"system": "FBW7 and c-Jun mRNA in TBL3 cells", "assay": "RT-qPCR of FBW7 and c-Jun mRNA in TBL3 cells", "type": "cell-based, bovine", "method": "Total cellular RNAs were extracted using an RNeasy Plus Mini Kit (Qiagen, Hilden, Germany) and parasite RNAs were extracted using the classical Trizol Protocol. cDNA synthesis was performed with the Reverse Transcriptase Superscript III (Invitrogen, CA, USA).\nQuantitative PCR amplification was performed in the ABI 7500 machine (Applied Biosystems, CA, USA) using the Sybr Green reagent (Applied Biosystems, CA, USA) using the primers listed in Table 5 below. The detection of a single product was verified by dissociation curve analysis. Relative quantities of mRNA were analyzed using the delta Ct method. The βactin qPCR was used for normalization. Table 5: qPCR primers"}, "PIN1 [4]": {"biological_target": "T1, PIN1", "details": "cited from earlier work"}},
  "note": "Where two headings read alike, the source gives them in different places.",
  "data": [
    {"molecule": "S=C(SC(=S)N1CCCCC1)N1CCCCC1", "note": "[1-Piperidinecarbodithioic acid, anhydrosulfide]", "values": [
      {"measurement": "IC50", "setting": "PIN1 [1]", "result": 4100, "unit": "nM"}
    ]},
    {"molecule": "CN1C(=O)c2ccc3c4c(ccc(c24)C1=O)C(=O)N(C)C3=O", "note": "[2,7-Dimethylbenzo[Imn][3,8]phenanthroline-1,3,6,8(2H,7H)-tetrone]", "values": [
      {"measurement": "IC50", "setting": "PIN1 [1]", "result": 2000, "unit": "nM"}
    ]},
    {"molecule": "O=C1Nc2ccc([N+](=O)[O-])cc2/C1=C1/Nc2ccccc2/C1=N/O", "note": "[(3Z)-3-[(3Z)-3-hydroxyiminoindolin-2-ylidene]-5-nitro-indolin-2-one]", "values": [
      {"measurement": "PIN1 inhibition (Ki and/or IC50)", "setting": "PIN1 [1]; cell prints neither Ki nor IC50", "result": "500 to 2500", "unit": "nM"}
    ]},
    {"molecule": "CCOC(=O)CN1C(=O)c2ccc3c4ccc5c6c(ccc(c7ccc(c2c37)C1=O)c64)C(=O)N(CC(=O)OCC)C5=O", "note": "[Diethyl 2,2'-(1,3,8,10-tetraoxo-1,3,8,10-tetrahydroisoquinolino[4 ',5',6':6,5,10]anthra[2,1,9-def]isoquinoline-2,9-diyl)diacetate]", "values": [
      {"measurement": "IC50", "setting": "PIN1 [1]", "result": 1500, "unit": "nM"}
    ]},
    {"molecule": "CCOC(=O)CN1C(=O)c2cccc3cccc(c23)C1=O", "note": "[Ethyl (1,3-dioxo-1H-benzo[de]isoquinolin-2(3H)-yl)acetate]", "values": [
      {"measurement": "IC50", "setting": "PIN1 [1]", "result": 5000, "unit": "nM"}
    ]},
    {"molecule": "O=C1C=CC(=O)c2c(O)cccc21", "note": "[Juglone, 5-Hydroxy-1,4-naphthlenedione]", "values": [
      {"measurement": "proliferation of non-parasitized cells", "setting": "[2]", "result": "no effect"},
      {"measurement": "mRNA expression", "setting": "[3]", "result": "no effect"}
    ]},
    {"molecule": "Ac-Lys(N-biotinoyl)-Ala-Ala-Bth-D-Thr(PO3H2)-Pip-Nal-Gln-NH2", "values": [
      {"measurement": "Ki", "setting": "PIN1 [4]; read-out: PIN1 inhibition Ki", "result": 1.2, "unit": "nM"}
    ]},
    {"molecule": "Ac-Phe-Phe-pSer-Ψ[(Z)CHdC]-Pro-Arg-NH2", "values": [
      {"measurement": "IC50", "setting": "PIN1 [4]; read-out: PIN1 inhibition IC50", "result": 1300, "unit": "nM"},
      {"measurement": "Ki", "setting": "PIN1 [4]; read-out: PIN1 inhibition Kis", "result": 1740, "unit": "nM"}
    ]},
    {"molecule": "CRYPEVEIC", "values": [
      {"measurement": "Ki", "setting": "PIN1 [4]; read-out: PIN1 inhibition Ki", "result": 520, "unit": "nM"}
    ]}
  ]
}
